Data from patent publication US8178506B2, “Oligomeric compounds and compositions for use in modulation of small non-coding RNAs” (Regulus Therapeutics Inc., priority 2003, dated 2012).
In the oligonucleotide strings, read from the 5' end, every base follows the letter of its sugar. An asterisk marks phosphorothioate; unmarked linkages are phosphodiester. Other units and linkages are bracketed, terminal groups are in braces. A string of capitals states the bases alone. e = 2'-O-(2-methoxyethyl) (MOE); [5mC] = 5-methylcytosine

Experiments:
adipocytes = assay: Triglyceride accumulation assay in adipocytes; type: cell-based, human; settings: for Triglycerides: differentiating adipocytes day 10 post-induction, 24 hours after treatment
Glut4 = Glut4 mRNA expression in adipocytes (real-time PCR); type: cell-based, human; settings: for Glut4 (mRNA expression): adipocytes, 250 nM oligomeric compound, day nine post-transfection, relative to control (1.0)
aP2 = aP2 mRNA expression in adipocytes (real-time PCR); type: cell-based, human; settings: for AP2 (mRNA expression): adipocytes, 250 nM oligomeric compound, day nine post-transfection, relative to control (1.0)
HSL = HSL mRNA expression in adipocytes (real-time PCR); type: cell-based, human; settings: for HSL (mRNA expression): adipocytes, 250 nM oligomeric compound, day nine post-transfection, relative to control (1.0)
PPARγ = PPARγ mRNA expression in adipocytes (real-time PCR); type: cell-based, human; settings: for PPAR gamma mRNA: differentiating adipocytes transfected with oligomeric compound; for PPAR-gamma mRNA: differentiating adipocytes day 10 post-induction, 24 hours after treatment; for PPAR gamma (mRNA expression): adipocytes, 250 nM oligomeric compound, day nine post-transfection, relative to control (1.0)
HuVECs = assay: Endothelial tube formation assay in HuVECs; settings: 75 nM oligomeric compound
[1] = system: BJ, B16-F10, T47D, T47Dp53 and HeLa cells; assay: Cell cycle assay (propidium iodide flow cytometry), cell line panel; type: cell-based; settings: 150 nM oligomeric compound, 4.5 μg/ml LIPOFECTIN, after 72 hours, propidium iodide flow cytometry
[2] = differentiating adipocytes transfected with oligomeric compound
[3] = differentiating adipocytes transfected with oligomeric compound, Table 75
[4] = Table 20, adipocyte differentiation assay as in Example 13
[5] = 50 nM, differentiating adipocytes day 10 post-induction, 24 hours after treatment
[6] = 100 nM, differentiating adipocytes day 10 post-induction, 24 hours after treatment
[7] = 200 nM, differentiating adipocytes day 10 post-induction, 24 hours after treatment
[8] = 300 nM, differentiating adipocytes day 10 post-induction, 24 hours after treatment

## 327928 (antisense eA*eA*e[5mC]*e[5mC]*eG*eA*eT*eT*eT*e[5mC]*eA*eG*eA*eT*eG*eG*eT*eG*e[5mC]*eT*eA*eG) [compound 327928]
adipocytes; [2]
  TG (triglyceride accumulation): 45 percentage of untreated control (UTC)
Glut4; [2]
  GLUT4 mRNA: 39 percentage of untreated control (UTC)
aP2; [2]
  AP2 mRNA: 77 percentage of untreated control (UTC)
HSL; [2]
  HSL mRNA: 52 percentage of untreated control (UTC)
PPARγ
  PPAR gamma mRNA: 57 percentage of untreated control (UTC)
HuVECs; Table 58
  % Activity Relative to UTC (tube formation): 37.0%
[1]
  G1 (percentage of cells in phase of the cell cycle): 56%
  G2/M (percentage of cells in phase of the cell cycle): 16%
  S (percentage of cells in phase of the cell cycle): 27.9%
  SubG1 (percentage of cells in phase of the cell cycle): 6.6%
  aneuploid (percentage of cells): 15.9%

## 327911 (antisense eG*e[5mC]*eT*eA*e[5mC]*e[5mC]*eT*eG*e[5mC]*eA*e[5mC]*eT*eG*eT*eA*eA*eG*e[5mC]*eA*e[5mC]*eT*eT*eT*eT) [compound 327911]
adipocytes; [3]
  TG (triglyceride accumulation): 59 percentage of untreated control (UTC)
Glut4; [3]
  GLUT4 mRNA: 48 percentage of untreated control (UTC)
aP2; [3]
  aP2 mRNA: 76 percentage of untreated control (UTC)
HSL; [3]
  HSL mRNA: 71 percentage of untreated control (UTC)
PPARγ; Table 75
  PPAR gamma mRNA: 75 percentage of untreated control (UTC)
HuVECs; Table 57
  % Activity Relative to UTC (tube formation): 75.9%
[1]
  G1 (percentage of cells in phase of the cell cycle): 49.9%
  G2/M (percentage of cells in phase of the cell cycle): 20%
  S (percentage of cells in phase of the cell cycle): 30.1%
  SubG1 (percentage of cells in phase of the cell cycle): 10.9%
  aneuploid (percentage of cells): 16.5%

## 327901 (antisense eT*eG*eA*eG*e[5mC]*eT*eA*e[5mC]*eA*eG*eT*eG*e[5mC]*eT*eT*e[5mC]*eA*eT*e[5mC]*eT*e[5mC]*eA) [compound 327901]
adipocytes; 50 nM
  Triglycerides: 85.3 % UTC
adipocytes; 100 nM
  Triglycerides: 68.9 % UTC
adipocytes; 200 nM
  Triglycerides: 34.0 % UTC
adipocytes; 300 nM
  Triglycerides: 23.0 % UTC
adipocytes; [4]
  TG: 0.54
adipocytes; adipocytes, 250 nM oligomeric compound, relative to control (1.0), Table 15
  TG (triglyceride accumulation): 0.54
adipocytes; adipocytes, 250 nM oligomeric compound, relative to control (1.0), Table 16
  TG (triglyceride accumulation): 0.53
Glut4; [5]
  GLUT4 mRNA: 74.2 % UTC
Glut4; [6]
  GLUT4 mRNA: 49.7 % UTC
Glut4; [7]
  GLUT4 mRNA: 32.8 % UTC
Glut4; [8]
  GLUT4 mRNA: 17.4 % UTC
Glut4; [4]
  Glut4: 0.19
Glut4; Table 15
  Glut4 (mRNA expression): 0.19
Glut4; Table 16
  Glut4 (mRNA expression): 0.29
aP2; [5]
  AP2 mRNA: 78.3 % UTC
aP2; [6]
  AP2 mRNA: 64.6 % UTC
aP2; [7]
  AP2 mRNA: 39.0 % UTC
aP2; [8]
  AP2 mRNA: 22.4 % UTC
aP2; [4]
  AP2: 0.42
aP2; Table 15
  AP2 (mRNA expression): 0.42
aP2; Table 16
  AP2 (mRNA expression): 0.47
HSL; [5]
  HSL mRNA: 89.5 % UTC
HSL; [6]
  HSL mRNA: 73.5 % UTC
HSL; [7]
  HSL mRNA: 40.2 % UTC
HSL; [8]
  HSL mRNA: 11.9 % UTC
HSL; [4]
  HSL: 0.33
HSL; Table 15
  HSL (mRNA expression): 0.33
HSL; Table 16
  HSL (mRNA expression): 0.47
PPARγ; 50 nM
  PPAR-gamma mRNA: 74.6 % UTC
PPARγ; 100 nM
  PPAR-gamma mRNA: 70.8 % UTC
PPARγ; 200 nM
  PPAR-gamma mRNA: 51.8 % UTC
PPARγ; 300 nM
  PPAR-gamma mRNA: 39.3 % UTC
PPARγ; [4]
  PPAR gamma: 0.30
PPARγ; Table 15
  PPAR gamma (mRNA expression): 0.30
PPARγ; Table 16
  PPAR gamma (mRNA expression): 0.72
HuVECs; Table 57
  % Activity Relative to UTC (tube formation): 48.3%
HuVECs; Table 59
  % Activity Relative to UTC (tube formation): 100.0%
[1]
  G1 (percentage of cells in phase of the cell cycle): 34.7%
  G2/M (percentage of cells in phase of the cell cycle): 20.3%
  S (percentage of cells in phase of the cell cycle): 44.9%
  SubG1 (percentage of cells in phase of the cell cycle): 12%
  aneuploid (percentage of cells): 13.6%
